Test results published in patent US8592594B2, “Tetrahydro-quinoline derivatives” (Hoffmann-La Roche Inc., priority 2010, dated 2013).

system: recombinant AMPK proteins (α1β1γ1, α2β1γ1, α1(1-335), α1(1-394) or α2(1-394)); assay: Scintillation Proximity Assay (SPA), AMPK activation; format: biochemical, human; conditions: effective concentration of activator for 50% of maximal enzyme activity; 50 nM AMPK, 2 μM ATP, 2 μM biotin-SAMS, 30° C., 2 hours
Procedure: Recombinant human AMPK α1β1γ1, α2β1γ1 or AMPK α subunit truncations α1(1-335), α1(1-394) and α2(1-394) were constructed, expressed and purified as described previously (Pang, T., Zhang, Z. S., Gu, M., Qiu, B. Y., Yu, L. F., Cao, P. R., Shao, W., Su, M. B., Li, J. Y., Nan, F. J., and Li, J. (2008). Rat liver AMPK heterotrimer enzyme was obtained from Upstate (Billerica, Mass., U.S.A.).
Scintillation Proximity Assay
Before the Scintillation Proximity Assay (SPA) assay, 200 nM recombinant AMPK proteins (α1β1γ1, α2β1γ1, α1(1-335), α1(1-394) or α2(1-394)) were fully phosphorylated as described previously (Pang et al., 2008). SPA reactions were performed in 96-well plates at a final volume of 50 μL containing 20 mM Tris-HCl pH 7.5, 5 mM MgCl2, 1 mM DTT, 2 μM biotin-SAMS, 2 μM ATP, 0.2 μCi/well [γ-^33P]ATP, and various amount of activator. Reactions were initiated by the addition of 50 nM recombinant AMPK proteins to the reaction solutions and incubated at 30° C. for 2 hours. After that, reactions were terminated by the addition of 40 μL stop solution containing 80 μg streptavidin-coated SPA beads per well, 50 mM ED TA, 0.1% Triton X-100 in PBS, pH 7.5 and incubated for 1 hour. Finally, a 160 μL suspension solution containing 2.4 M CsCl, 50 mM EDTA, and 0.1% Triton X-100 in PBS (pH 7.5) was added to the reaction solution to suspend SPA beads completely. SPA signals were determined with a Wallac MicroBeta plate counter (PerkinElmer) 30 min later for calculation of the amount of product formed. The amount of products formed in 2 hour was plotted against activator concentrations to determine the effective concentration of the activator (EC50) required for 50% of maximal enzyme activity.

SMILES	EC50 [µM]
CC(C)NC(=O)c1ccc2c(c1)C1(CC1)CC(c1cc(F)ccc1Br)N2 (stereo not drawn) [Example 33, 2-(2-Bromo-5-fluoro-phenyl)-spiro(cyclopropane-1,4′-1′,2′,3′,4′-tetrahydroquinoline)-6-carboxylic acid isopropylamide]	13.6
CS(=O)(=O)N1CCN(C(=O)c2ccc3c(c2)C2(CC2)CC(c2cc(Cl)ccc2Cl)N3)CC1 (stereo not drawn) [Example 42, [2-(2,5-Dichloro-phenyl)-spiro(cyclopropane-1,4′-1′,2′,3′,4′-tetrahydroquinolin)-6-yl]-(4-methanesulfonyl-piperazin-1-yl)-methanone]	3.77
CC1(C)CC(c2cc(Cl)ccc2F)Nc2ccc(CC(=O)O)cc21 (stereo not drawn) [Example 18, [2-(5-Chloro-2-fluoro-phenyl)-4,4-dimethyl-1,2,3,4-tetrahydro-quinolin-6-yl]-acetic acid]	4.58
O=C(O)c1ccc2c(c1)C1(CC1)CC(c1cc(Cl)ccc1Cl)N2 (stereo not drawn) [Example 3, 2-(2,5-Dichloro-phenyl)-spiro(cyclopropane-1,4′-1′,2′,3′,4′-tetrahydroquinoline)-6-carboxylic acid]	6.12
O=C(NC1CCC1)c1ccc2c(c1)C1(CCCC1)CC(c1cc(Cl)ccc1F)N2 (stereo not drawn) [Example 64, 2-(5-Chloro-2-fluoro-phenyl)-spiro(cyclopentane-1,4′-1′,2′,3′,4′-tetrahydroquinoline)-6-carboxylic acid cyclobutylamide]	7.68
CN(C)C(=O)N1c2ccc(C(=O)O)cc2C2(CC2)CC1c1cc(Cl)ccc1Cl (stereo not drawn) [Example 13, 2-(2,5-Dichloro-phenyl)-1-dimethylcarbamoyl-spiro(cyclopropane-1,4′-1′,2′,3′,4′-tetrahydroquinoline)-6-carboxylic acid]	2.63
CCC1(C)CC(c2ccc(F)c(Cl)c2)Nc2ccc(C(=O)NC3CCC3)nc21 (stereo not drawn) [Example 70, 6-(3-Chloro-4-fluoro-phenyl)-8-ethyl-8-methyl-5,6,7,8-tetrahydro-[1,5]naphthyridine-2-carboxylic acid cyclobutylamide]	9.17
O=C(O)c1ccc2c(c1)C1(CC1)CC(c1cc(F)ccc1Br)N2 (stereo not drawn) [Example 7, 2-(2-Bromo-5-fluoro-phenyl)-spiro(cyclopropane-1,4′-1′,2′,3′,4′-tetrahydroquinoline)-6-carboxylic acid]	2.29
CNC(=O)c1ccc2c(c1)C1(CC1)CC(c1c(C)cc(F)cc1Br)N2 (stereo not drawn) [Example 49, 2-(2-Bromo-4-fluoro-6-methyl-phenyl)-spiro(cyclopropane-1,4′-1′,2′,3′,4′-tetrahydroquinoline)-6-carboxylic acid methylamide]	3.23
CN(C)C(=O)c1ccc2c(c1)C1(CCCC1)CC(c1cc(F)ccc1Br)N2 (stereo not drawn) [Example 51, 2-(2-Bromo-5-fluoro-phenyl)-spiro(cyclopentane-1,4′-1′,2′,3′,4′-tetrahydroquinoline)-6-carboxylic acid dimethylamide]	3.58
CC1(C)CC(c2cc(Cl)ccc2Cl)Nc2ccc(C(=O)NC3CCC3)cc21 (stereo not drawn) [Example 66, 2-(2,5-Dichloro-phenyl)-4,4-dimethyl-1,2,3,4-tetrahydro-quinoline-6-carboxylic acid cyclobutylamide]	5.53
CNC(=O)c1ccc2c(c1)C1(CCCC1)CC(c1cc(F)ccc1Br)N2 (stereo not drawn) [Example 55, 2-(2-Bromo-5-fluoro-phenyl)-spiro(cyclopentane-1,4′-1′,2′,3′,4′-tetrahydroquinoline)-6-carboxylic acid methylamide]	3.7
Cc1ccc(F)cc1C1CC2(CC2)c2cc(C(=O)N3CCOCC3)ccc2N1 (stereo not drawn) [Example 30, [2-(5-Fluoro-2-methyl-phenyl)-spiro(cyclopropane-1,4′-1′,2′,3′,4′-tetrahydroquinolin)-6-yl]-morpholin-4-yl-methanone]	2.47
O=C(NC1CC1)c1ccc2c(c1)C1(CC1)CC(c1cc(Cl)ccc1Cl)N2 (stereo not drawn) [Example 37, 2-(2,5-Dichloro-phenyl)-spiro(cyclopropane-1,4′-1′,2′,3′,4′-tetrahydroquinoline)-6-carboxylic acid cyclopropylamide]	13.9
CS(=O)(=O)c1ccc(F)cc1C1CC2(CC2)c2cc(C(=O)O)ccc2N1 (stereo not drawn) [Example 11, 2-(5-Fluoro-2-methanesulfonyl-phenyl)-spiro(cyclopropane-1,4′-1′,2′,3′,4′-tetrahydroquinoline)-6-carboxylic acid]	4.96
O=C(c1ccc2c(c1)C1(CCCC1)CC(c1cc(F)ccc1Br)N2)N1CCOCC1 (stereo not drawn) [Example 57, [2-(2-Bromo-5-fluoro-phenyl)-spiro(cyclopentane-1,4′-1′,2′,3′,4′-tetrahydroquinolin)-6-yl]-morpholin-4-yl-methanone]	2.36
CC1(C)CC(c2cc(Cl)ccc2F)Nc2ccc(C(=O)NC3CCC3)cc21 (stereo not drawn) [Example 67, 2-(5-Chloro-2-fluoro-phenyl)-4,4-dimethyl-1,2,3,4-tetrahydro-quinoline-6-carboxylic acid cyclobutylamide]	15.1
CC1(C)CC(c2cc(Cl)ccc2Cl)Nc2ccc(C(=O)O)cc21 (stereo not drawn) [Example 15, 2-(2,5-Dichloro-phenyl)-4,4-dimethyl-1,2,3,4-tetrahydro-quinoline-6-carboxylic acid]	7.6
CC(C)NC(=O)c1ccc2c(c1)C1(CC1)CC(c1cc(Cl)ccc1Cl)N2 (stereo not drawn) [Example 41, 2-(2,5-Dichloro-phenyl)-spiro(cyclopropane-1,4′-1′,2′,3′,4′-tetrahydroquinoline)-6-carboxylic acid isopropylamide]	5.17
CS(=O)(=O)c1ccc(S(C)(=O)=O)c(C2CC3(CC3)c3cc(C(=O)O)ccc3N2)c1 (stereo not drawn) [Example 12, 2-(2,5-Dimethanesulfonyl-phenyl)-spiro(cyclopropane-1,4′-1′,2′,3′,4′-tetrahydroquinoline)-6-carboxylic acid]	5.92
Cc1ccc(F)cc1C1CC2(CC2)c2cc(C(=O)NC3CCC3)ccc2N1 (stereo not drawn) [Example 28, 2-(5-Fluoro-2-methyl-phenyl)-spiro(cyclopropane-1,4′-1′,2′,3′,4′-tetrahydroquinoline)-6-carboxylic acid cyclobutylamide]	11.4
O=C(c1ccc2c(c1)C1(CC1)CC(c1cc(Cl)ccc1Cl)N2)N1CCOCC1 (stereo not drawn) [Example 40, [2-(2,5-Dichloro-phenyl)-spiro(cyclopropane-1,4′-1′,2′,3′,4′-tetrahydroquinolin)-6-yl]-morpholin-4-yl-methanone]	3.69
CC1(C)CC(C(C)(C)c2ccccc2)Nc2ccc(C(=O)O)cc21 (stereo not drawn) [Example 16, 4,4-Dimethyl-2-(1-methyl-1-phenyl-ethyl)-1,2,3,4-tetrahydro-quinoline-6-carboxylic acid]	8.61
CC(C)N1CCN(c2cccc(C3CC(C)(C)c4cc(C(=O)O)ccc4N3)c2)CC1 (stereo not drawn) [Example 23, 2-[3-(4-Isopropyl-piperazin-1-yl)-phenyl]-4,4-dimethyl-1,2,3,4-tetrahydro-quinoline-6-carboxylic acid]	7.02
Cc1ccc(F)cc1C1CC2(CC2)c2cc(C(=O)N3CCN(C)CC3)ccc2N1 (stereo not drawn) [Example 31, [2-(5-Fluoro-2-methyl-phenyl)-spiro(cyclopropane-1,4′-1′,2′,3′,4′-tetrahydroquinolin)-6-yl]-(4-methyl-piperazin-1-yl)-methanone]	2.58
O=C(NC1CCC1)c1ccc2c(c1)C1(CC1)CC(c1cc(Cl)cc(Cl)c1)N2 (stereo not drawn) [Example 43, 2-(3,5-Dichloro-phenyl)-spiro(cyclopropane-1,4′-1′,2′,3′,4′-tetrahydroquinoline)-6-carboxylic acid cyclobutylamide]	5.86
O=C(NC1CCC1)c1ccc2c(c1)C1(CCCC1)CC(c1ccc(F)c(Cl)c1)N2 (stereo not drawn) [Example 69, 2-(3-Chloro-4-fluoro-phenyl)-spiro(cyclopentane-1,4′-1′,2′,3′,4′-tetrahydroquinoline)-6-carboxylic acid cyclobutylamide]	4.18
O=C(c1ccc2c(c1)C1(CC1)CC(c1cc(Cl)ccc1F)N2)N1CCOCC1 (stereo not drawn) [Example 44, [2-(5-Chloro-2-fluoro-phenyl)-spiro(cyclopropane-1,4′-1′,2′,3′,4′-tetrahydroquinolin)-6-yl]-morpholin-4-yl-methanone]	3.02
C=CC1(C)CC(c2ccc(F)c(Cl)c2)Nc2ccc(C(=O)O)cc21 (stereo not drawn) [Example 19, 2-(3-Chloro-4-fluoro-phenyl)-4-methyl-4-vinyl-1,2,3,4-tetrahydro-quinoline-6-carboxylic acid]	2.13
CC(C)NC(=O)c1ccc2c(c1)C1(CC1)CC(c1cc(Cl)ccc1F)N2 (stereo not drawn) [Example 47, 2-(5-Chloro-2-fluoro-phenyl)-spiro(cyclopropane-1,4′-1′,2′,3′,4′-tetrahydroquinoline)-6-carboxylic acid isopropylamide]	11.4
